Earlier results, collected in patent US20020037290A1, “Compositions comprising heat shock proteins or alpha(2) macroglobulin, antigenic molecules and saponins, and methods of use thereof” (priority 2000, published 2002).

Columns and labels:
[1] = tested on: bovine serum albumin and cytochrome b5; conditions: Kensil et al., 1991, cited from earlier work; for level of antibody response induced: mice, antigens bovine serum albumin and cytochrome b5; for IgG2a response to cytochrome b5: saponin doses of 20 μg
[2] = mouse, in vivo; cited from earlier work
[3] = tested on: murine antiidiotype antibody MELIMMUNE-1; conditions: melanoma patients; Livingston et al., 1995; cited from earlier work
UV6138 carcinoma = conditions: cited from earlier work
UV6139SJ carcinoma [4] = conditions: prior experiments, cited from earlier work; for tumor growth, monitored as the average of two perpendicular diameter measurements: U.S. Pat. No. 5,837,251, established UV6139SJ carcinoma
UV6139SJ carcinoma [5] = conditions: cited from earlier work
[6] = previously shown, U.S. Pat. No. 5,837,251
[7] = prior result of U.S. Pat. No. 5,837,251, resistant mice out of mice challenged

QS-18
level of antibody response induced [1]: comparable to other commonly used adjuvants | IgG2a response to cytochrome b5 [1]: stimulate IgG2a response

QS-21
level of antibody response induced [1]: comparable to other commonly used adjuvants | IgG2a response to cytochrome b5 [1]: stimulate IgG2a response | toxicity in mice [2]: least toxic | serological response to MELIMMUNE-1 [3]: significantly increased

QS-17
level of antibody response induced [1]: comparable to other commonly used adjuvants | IgG2a response to cytochrome b5 [1]: stimulate IgG2a response

B1: gp96 derived from the UV6138: heat shock protein gp96(-peptide complex) preparation isolated from the UV-induced UV6138 mouse carcinoma (protein, UniProt P08113 22-802, looked up)
Endoplasmin: DDEVDVDGTVEEDLGKSREGSRTDDEVVQREEEAIQLDGLNASQIRELREKSEKFAFQAEVNRMMKLIINSLYKNKEIFLRELISNASDALDKIRLISLTDENALAGNEELTVKIKCDKEKNLLHVTDTGVGMTREELVKNLGTIAKSGTSEFLNKMTEAQEDGQSTSELIGQFGVGFYSAFLVADKVIVTSKHNNDTQHIWESDSNEFSVIADPRGNTLGRGTTITLVLKEEASDYLELDTIKNLVRKYSQFINFPIYVWSSKTETVEEPLEEDEAAKEEKEESDDEAAVEEEEEEKKPKTKKVEKTVWDWELMNDIKPIWQRPSKEVEEDEYKAFYKSFSKESDDPMAYIHFTAEGEVTFKSILFVPTSAPRGLFDEYGSKKSDYIKLYVRRVFITDDFHDMMPKYLNFVKGVVDSDDLPLNVSRETLQQHKLLKVIRKKLVRKTLDMIKKIADEKYNDTFWKEFGTNIKLGVIEDHSNRTRLAKLLRFQSSHHSTDITSLDQYVERMKEKQDKIYFMAGSSRKEAESSPFVERLLKKGYEVIYLTEPVDEYCIQALPEFDGKRFQNVAKEGVKFDESEKTKESREATEKEFEPLLNWMKDKALKDKIEKAVVSQRLTESPCALVASQYGWSGNMERIMKAQAYQTGKDISTNYYASQKKTFEINPRHPLIRDMLRRIKEDEDDKTVMDLAVVLFETATLRSGYLLPDTKAYGDRIERMLRLSLNIDPEAQVEEEPEEEPEDTSEDAEDSEQDEGEEMDAGTEEEEEETEKESTEKDEL
modifications: bound tumor peptides
notes: heat shock protein gp96(-peptide complex) preparation isolated from the UV-induced UV6138 mouse carcinoma
immunity to the UV6138 challenge (UV6138 carcinoma; [6]): rendered the mice immune | resistance conferred against the UV6138 cells (UV6138 carcinoma; [7]): 6 out of 7

B2: gp96 derived from the UV6139: gp96-peptide complex derived from UV6139SJ carcinoma cells (protein, UniProt P08113 22-802, looked up)
Endoplasmin: B1 Endoplasmin
modifications: bound tumor peptides
notes: gp96-peptide complex derived from UV6139SJ carcinoma cells
tumor growth, monitored as the average of two perpendicular diameter measurements (UV6139SJ carcinoma [4]): significantly retarded | kinetics of tumor growth in treated and control mice (UV6139SJ carcinoma [4]; effect appears to diminish after treatment is terminated): immediate inhibitory effect on tumor growth | immunity to the UV6139SJ challenge (UV6139SJ carcinoma [5]; [6]): conferred resistance | resistance conferred against the UV6139SJ cells (UV6139SJ carcinoma [5]; [7]): 2 out of 4

B3: liver-derived gp96: gp96-peptide complex derived from normal liver (protein, UniProt P08113 22-802, looked up)
Endoplasmin: B1 Endoplasmin
modifications: bound peptides
tumor growth, monitored as the average of two perpendicular diameter measurements (UV6139SJ carcinoma [4]): not
